Read-outs that look alike come from different tables or passages of the source.

One series deals with SARS-CoV-2 3CLpro (Severe acute respiratory syndrome coronavirus 2, UniProt P0DTD1). Briefly: biochemical.
The subject of series [1] is SARS-CoV-2 (2019-nCoV-WIV04). The series can be described thus: microbe, parasite or virus in culture. It is filed as cell-based. To be noted: read-out: EC50 against SARS-CoV-2 virus.
Series [2] has as its system influenza A/California/07/09 (H1N1) strain. Briefly: microbe, parasite or virus in culture. It is filed as cell-based. To be noted: read-out: EC50 (effective 50% concentration), MDCK cells.
Details of series [3]: method as in earlier work. To be noted: co-administration with ritonavir; cited from earlier work.
Series [4] concerns the target SARS-CoV-2 RdRp complex (nsp12-nsp7-nsp8) (Severe acute respiratory syndrome coronavirus 2, UniProt P0DTD1). It is filed as biochemical.
A further series has as its system COVID-19. Set-up: method as in PMID 32568613. To be noted: unvaccinated symptomatic adults, Nirmatrelvir-based therapy; cited from earlier work.
Where [5] appears, read: Severe acute respiratory syndrome coronavirus 2, Vero C1008, 24 h.

A word on the IC50: it is the concentration that gives 50% inhibition. The low end stands for greater potency in that assay, the high end for weaker potency in that assay. Compound “2,4-bis-O-galloyl-1,3,6-tri-O-galloyl-β-D-glucose [R-7]” had an IC50 against SARS-CoV-2 3CLpro of 9.84 µM. The EC50 in series [1] turned out to be 17.5 µM.
As for `NC(=O)c1nc(F)c[nH]c1=O` [Favipiravir], the EC50 in series [2] was 24 µM.
Take `Cc1cccc(C)c1OCC(=O)N[C@@H](Cc1ccccc1)[C@@H](O)C[C@H](Cc1ccccc1)NC(=O)[C@H](C(C)C)N1CCCNC1=O` [Lopinavir]: the “increase of area under the plasma concentration-time curve” value in series [3] was “more than 100 times”.
On to `O=c1c(O)c(-c2cc(O)c(O)c(O)c2)oc2cc(O)cc(O)c12` [Myricetin], for which, in series [4] (250 μM), the “formation of the RdRp-RNA complex” value is recorded as “completely blocked”. Also, the “inhibition of primer elongation” value in series [4] (gel assay, compared with Rutan) was “showed inhibitory activity in higher concentrations”.
Take `CC(C)(C)[C@H](NC(=O)C(F)(F)F)C(=O)N1C[C@H]2[C@@H]([C@H]1C(=O)N[C@H](C#N)C[C@@H]1CCNC1=O)C2(C)C` [Nirmatrelvir]: the “reduction of the risk of severe complications following COVID-19 infection” value with COVID-19 is 89%.
On to `O=C(OC[C@H]1O[C@@H](OC(=O)c2cc(O)c(O)c(O)c2)[C@H](OC(=O)c2cc(O)c(O)c(O)c2)[C@@H](OC(=O)c2cc(O)c(O)c(O)c2)[C@@H]1OC(=O)c1cc(O)c(O)c(O)c1)c1cc(O)c(O)c(O)c1` [R-5, 1,2,3,4,6-penta-O-galloyl-β-D-glucose], for which, in series [1] (setting [5]), the EC50 came out at 7.49 µM.
In turn, `O=C(OC[C@H]1O[C@@H](OC(=O)c2cc(O)c(O)c(O)c2)[C@H](OC(=O)c2cc(O)c(O)c(O)c2)[C@@H](OC(=O)c2cc(O)c(O)c(OC(=O)c3cc(O)c(O)c(O)c3)c2)[C@@H]1OC(=O)c1cc(O)c(O)c(O)c1)c1cc(O)c(O)c(O)c1` [R-6, 3-bis-O-galloyl-1,2,4,6-tetra-O-galloyl-β-D-glucose] came in with an IC50 against SARS-CoV-2 3CLpro of 9.92 µM. In addition, the EC50 in series [1] (Severe acute respiratory syndrome coronavirus 2, Vero C1008, Vero E6 cells, MOI 0.01, 24 h post-infection, viral copies by qRT-PCR) was 5.95 µM.
On SARS-CoV-2 3CLpro (Rutan and components (Figure 4)), `O=C(OC[C@H]1O[C@@H](OC(=O)c2cc(O)c(O)c(O)c2)[C@H](OC(=O)c2cc(O)c(O)c(OC(=O)c3cc(O)c(O)c(O)c3)c2)[C@@H](OC(=O)c2cc(O)c(O)c(OC(=O)c3cc(O)c(O)c(O)c3)c2)[C@@H]1OC(=O)c1cc(O)c(O)c(OC(=O)c2cc(O)c(O)c(O)c2)c1)c1cc(O)c(O)c(O)c1` [R-8, 2,3,4-bis-O-galloyl-1,6-di-O-galloyl-β-D-glucose] gave a half-maximal inhibitory concentration (IC50) of 1.34 µM.
Consider `CCC(CC)COC(=O)[C@H](C)N[P@](=O)(OC[C@H]1O[C@@](C#N)(c2ccc3c(N)ncnn23)[C@H](O)[C@@H]1O)Oc1ccccc1` [Remdesivir], for which the EC50 in series [1] (setting [5]) was determined as 2 µM.

(Values after PMC10716264 (Frontiers in Medicine, 2023).)
